Test results taken from paper PMC5007466, “VCP recruitment to mitochondria causes mitophagy impairment and neurodegeneration in models of Huntington's disease” (Nature Communications, 2016).
Entries after “also recorded” stand apart in the source; their conditions may differ.

Legend:
[1] = test system: HdhQ111 mouse striatal cells; test: Mitochondrial length and mitophagosomes by electron microscopy; assay type: cell-based; conditions: 3 uM/day for 3 days, EM
Source text: The HdhQ7 and HdhQ111 cells were fixed by 2.5% glutaraldehyde in 0.1 M cacodylate buffer. Small pieces of the striata tissue of mice were fixed by immersion in triple aldehyde-DMSO. After rinsing in 0.1 M phosphate buffer (pH 7.3), the samples were post-fixed in ferrocyanide-reduced osmium tetroxide.
The above fixed samples were rinsed by water followed by overnight soaking in acidified uranyl acetate. After rinsing in distilled water, the blocks were dehydrated in ascending concentrations of ethanol, passed through propylene oxide, and embedded in Poly/Bed resin. Thin sections were sequentially stained with acidified uranyl acetate followed by a modification of Sato's triple lead stain. These sections were examined in a FEI Tecnai Spirit (T12) transmission electron microscope with a Gatan US4000 4kx4k CCD at the Case Western Reserve University EM core facility. Mitochondria from 15 random areas in each group were imaged by an experimenter blind to the experimental groups. The length of mitochondria was measured by NIH Image J software. The number of mitophagosomes per 100 μm^2 was counted. The number of gold particles labelling VCP on mitochondria were quantitated.

C57Black mice = test: Blood biochemistry of naive mice; assay type: in vivo, mouse; conditions: 3 mg/kg/day, 4 weeks
Experimental: Supplementary Figure 8 : Toxicity analysis of HV -3in naïve mice .
We performed a toxicity analysis of HV-3 in mice. Six -week-old C57Black mice were treated with saline or peptide HV-3 at 3mg/kg/day by Alzet pump implantation. After 4- week treatment, the plasma, blood and whole mouse bodies of mice were collected. Examination on blood chemistry (Supplementary Table 1), hematology (Supplementary Table 2) and general necropsy of mice were performed at the Animal Diagnostic Laboratory at Stanford University. The experimenter who conducted the analysis was blind to the treatment groups. Automated hematology was performed on the Sysmex XT-2000iV analyzer system. Blood smears were made for all full CBC samples and reviewed by a medical technologist. Manual differentials were performed as indicated by species and automated analysis. Chemistry analysis was performed on the Siemens Dimension Xpand analyzer. […]
Student’s t test. Four-week sustained treatment with HV-3 by pump implantation had no effects on blood chemistry (Supplementary Table 1), hematology (Supplementary Table 2), and gross necropsy of naïve mice when compared to mice treated with saline. A four-week treatment with HV-3 had […] on immuno-density of CD3, a marker of T-cell for adaptive immune response, in the brains and spleens of naïve mice (a). Treatment with HV-3 had no effects on the size and weight of the spleens (b). […]
Table 1: Effects of 4-w eek treatment w ith HV-3 on blood biochemistry of naïve mice […]
M ean SD M ean SD p-value unit n

YAC128 mice [2] = test: DARPP-32 protein level in YAC128 striatal extracts; assay type: in vivo, mouse; conditions: 3 mg/kg/day, n=6
Experimental: (§1) YAC128 mice (Tg) and their age-matched wt littermates were implanted with an osmotic pump containing TAT control peptide or HV-3 peptide (3 mg/kg/day, each) starting from the age of 3 months. The pump was replaced once every month. By the age of 12 months, the treatments were terminated and the mouse samples were harvested for analysis.
Protein concentrations were determined by Bradford assay. Protein was resuspended in Laemmli buffer, loaded on SDS–PAGE, and transferred onto nitrocellulose membranes. Membranes were probed with the indicated antibodies, followed by visualization with ECL. Representative blots have been cropped for presentation. Images of full-size blots are presented in Supplementary Fig. 9.

R6/2 mice = test: Body weight and survival, R6/2; assay type: in vivo, mouse; conditions: R6/2, 5–13 weeks of age, 3 mg kg^−1 per day, n=15
Experimental: Male hemizygous R6/2 mice (Tg) and their age-matched wt littermates (5-week-old) were implanted with a 28-day osmotic pump (Alzet, Cupertino CA) containing TAT control peptide or HV-3 peptide, which delivered peptides to the mice at a rate of 3 mg kg^−1 per day. The first pump was implanted subcutaneously in the back of 5-week-old mice between the shoulders and replaced once, after 4 weeks.
The body weight and survival rate of HD mice and wt littermates were recorded throughout the study period.

YAC128 mice [3] = test: Stereology of NeuN-positive striatal neurons; assay type: in vivo, mouse; conditions: YAC128, 12 months of age, 3 mg/kg/day, n=6
Experimental: as §1
To measure the number of NeuN-positive cells, a series of 25 μm thick coronal sections spaced 200 μm apart spanning the striatum were stained with NeuN antibody (Millipore, 1:500) and visualized by diaminobenzidine. For neuropathological analyses, brain sections were analysed stereologically. Briefly, unbiased stereological counts of NeuN-positive neurons within the striatum were performed using unbiased stereological principles and analysed with StereoInvestigator software (Microbrightfield, Williston, VT). Optical fractionator sampling was carried out on a Leica DM5000B microscope (Leica Microsystems, Bannockburn, IL) equipped with a motorized stage and Lucivid attachment ( × 40 objective). The following parameters were used in the final study: grid size, (X) 500 μm, (Y) 500 μm; Counting frame, (X) 68.2 μm, (Y) 75 μm, depth was 20 μm. […] The total volume of stratial tissue measured in each brain is calculated by StereoInvestigator and the neuronal density is presented as NeuN positive cell number per mm^3.

CSCC[C@H](NC(=O)[C@@H](NC(=O)[C@H](CC(C)C)NC(=O)[C@@H](NC(=O)[C@H](Cc1c[nH]cn1)NC(=O)CCCCCNC(=O)[C@H](CCCNC(=N)N)NC(=O)[C@H](CCCNC(=N)N)NC(=O)[C@H](CCCNC(=N)N)NC(=O)[C@H](CCC(N)=O)NC(=O)[C@H](CCCNC(=N)N)NC(=O)[C@H](CCCNC(=N)N)NC(=O)[C@H](CCCCN)NC(=O)[C@H](CCCCN)NC(=O)[C@H](CCCNC(=N)N)NC(=O)CNC(=O)[C@@H](N)Cc1ccc(O)cc1)C(C)C)C(C)C)C(=O)N[C@@H](CS)C(=O)N[C@@H](C)C(=O)N[C@H](C(N)=O)[C@@H](C)O [HV-3]
mitochondrial length [1]: increased mitochondrial length
number of mitophagosomes [1]: reduced this accumulation; also recorded: greatly reduced the accumulation of mitophagosomes
ALT (C57Black mice; mean, n = 4/group): 71.00 U/L
AST (C57Black mice; mean, n = 4/group): 237.25 U/L
Albumin (C57Black mice; mean, n = 4/group): 2.95 g/dL
Alkaline Phosphatase (C57Black mice; mean, n = 4/group): 108.00 IU/L
Anion Gap (C57Black mice; mean, n = 4/group): 33.08 mmol/L
BUN (C57Black mice; mean, n = 4/group): 27.50 mg/dL
Carbon Dioxide (C57Black mice; mean, n = 4/group): 16.45 mmol/L
Chloride (C57Black mice; mean, n = 4/group): 109.00 mmol/L
Creatinine (C57Black mice; mean, n = 4/group): 0.40 mg/dL
Globulin (C57Black mice; mean, n = 4/group): 2.20
Glucose (C57Black mice; mean, n = 4/group): 312.25 mg/dL
Na/K Ratio (C57Black mice; mean, n = 4/group): 20.96
Phosphorus (C57Black mice; mean, n = 4/group): 8.45 mg/dL
Potassium (C57Black mice; mean, n = 4/group): 7.28 mmol/L
Sodium (C57Black mice; mean, n = 4/group): 151.25 mmol/L
T.Protein (C57Black mice; mean, n = 4/group): 5.15 g/dL
Total Bilirubin (C57Black mice; mean, n = 4/group): 0.13 mg/dL
Calcium (C57Black mice; mean, n = 4/group, p 0.04 versus saline): 9.78 mg/dL
blood chemistry (overall) (C57Black mice; versus saline): no effects
DARPP-32 protein level (YAC128 mice [2]): significantly increased DARPP-32 levels in the two mouse models
body weight (R6/2 mice): increased body weight
survival rate (R6/2 mice): increased body weight and survival rate
NeuN-positive neurons in dorsolateral striatum (YAC128 mice [3]): significantly increased the number of neurons positive for anti-NeuN immunostaining
